Results: patent US7956194B2, “Microbiocidal (E.G. fungicidal) 1,2,3-triazole derivatives” (Syngenta Crop Protection, Inc., priority 2002, dated 2011)

Structure (SMILES) | melting point [°C]
CC(C)CC(C)c1ccccc1NC(=O)c1nn(C)nc1C(F)(F)F (centres unmarked) [Compound 2.219, 2-methyl-5-trifluoromethyl-2H-1,2,3-triazole-4-carboxylic acid [2-(1,3-dimethyl-butyl)-phenyl]-amide] | 94.6 to 95.4
Cn1nc(C(=O)Nc2cc(Cl)ccc2-c2ccccc2)c(C(F)F)n1 [Compound 3.017, 5-difluoromethyl-2-methyl-2H-1,2,3-triazole-4-carboxylic acid (4-chloro-biphenyl-2-yl)-amide] | 155 to 156
